Reference: a melting point compilation (Tetko et al.; mined from patent text by program, amines drawn as free bases though some values may be those of a salt)

Row | SMILES | melting point
1 | COc1ccc(C2=NN(C3CCN(C(=O)NC(C)(C)C)CC3)C(=O)[C@@H]3CC=CC[C@H]23)cc1OC | 164 to 166 °C
2 | CC(C)(CC(=O)C(=O)Nc1ccc2c(c1Br)COC2=O)c1ccccc1 | 150 to 152 °C
3 | O=C(O)CCc1ccc(NC(=O)C(COC2CCCCO2)NS(=O)(=O)c2ccc(Cl)cc2)cc1 (racemic) | 150 to 151 °C
4 | CN(C[C@@H]1C[C@H]1COc1ccc(C(=O)c2ccc(Br)cc2)cc1)C1CC1 (racemic) | 136 to 137 °C
5 | CCOC(=O)c1cc(Br)c(C(=O)OCC)cc1F | 30 °C
6 | CC1(C)OC(=O)Nc2ccc(-c3cc(C#N)cc(OC(F)(F)F)c3)cc21 | 227 to 228 °C
7 | CN(C)S(=O)(=O)c1cc(C(=O)O)cc(NCc2ccccc2)c1Oc1ccccc1 | 205 to 206 °C
8 | COc1ccc(CCc2nnc(-c3ccc4occc4c3)o2)cc1 | 127 to 128 °C
9 | CCOC(=O)Cc1cc2cc(Br)ccc2s1 | 56 to 57 °C
10 | CN(C)C=Nc1ccc(-c2c[nH]cn2)cc1 | 141 to 142 °C
11 | COc1ccc2c(c1)cc(/C=C/c1ccccc1Cl)n2CCC#N | 136 to 138 °C
12 | Cc1ccccc1CCNC(=O)c1ccc(Br)cc1 | 102 to 103 °C
13 | CN(Cc1ccc2nsnc2c1)C1CCN(C(=O)c2ccc(Nc3nccc(Nc4ccc(F)cc4)n3)cc2)CC1 | 191 to 192 °C
14 | Cc1oc(-c2ccccc2)nc1COc1ccc(CON=C(CCC(=O)O)c2cccnc2)cc1 | 158 to 159 °C
15 | CC(C)(C)OC(=O)C(Br)=CC1C(C(=O)O)C1(C)C (configuration not stated) | 76 °C
16 | O=CCC1Cc2ccc(F)cc2C1=O (racemic) | 62 °C
17 | O=C1CC(=O)OC(CCl)C1 (single isomer, unassigned; (-)) | 98 to 99 °C
18 | COCCOCCOc1ccc2c(c1)S(=O)(=O)N(Cc1ccccc1)C2=O | 86 to 88 °C
19 | CC(C)(C)OC(=O)CC(O)c1ccc(Cl)nc1NC(=O)C(C)(C)C (configuration not stated) | 130 to 132 °C
20 | COC(=O)CCCc1cc2cc(Cl)ccc2n1S(=O)(=O)c1ccc2nsnc2c1 | 103 to 106 °C
21 | CC(C)(C)C(NC(=O)c1ccc(Cl)cc1)NC(=NC#N)Nc1cc(F)ccc1F (configuration not stated) | 196 to 198 °C
22 | COc1cc(COc2nn(-c3ccccc3)cc2/C=C\c2csc(C)n2)ccc1OCc1nc(-c2ccco2)oc1C | 111 to 112 °C
23 | O=[N+]([O-])c1cc([N+](=O)[O-])c(Nc2ccc3ccccc3c2[N+](=O)[O-])c(C(F)(F)F)c1 | 213 to 215 °C
24 | CONC(=O)Nc1ccc(-c2sc3c(c2CNC(C)c2ccccc2)c(=O)n(-c2ccc(F)cn2)c(=O)n3Cc2c(F)cccc2F)cc1 (configuration not stated) | 128 to 130 °C
25 | CC(C)c1ccc(-c2cnc(-c3cccc(C(=O)O)c3)[nH]2)cc1 | 296 to 298 °C

Row | SMILES | melting point
26 | Cc1ccc2cccc(OCc3c(Cl)ccc(S(N)(=O)=O)c3Cl)c2n1 | 206 to 208 °C
27 | Cc1ccc2c(c1)Sc1cc(C)ccc1O2 | 69 to 70 °C
28 | CNC(=O)[C@@H]1C[C@@H](OC(C)(C)C)CN1S(=O)(=O)c1ccc(Cl)c(CBr)c1Cl | 73 °C
29 | CCCCCCCCCCCCCCCCNC(=O)Nc1sc(C(=O)O)c(C)c1C(=O)OC(C)(C)C | 188 to 189 °C
30 | O=C(/C=C/c1ccc(F)c(F)c1)N1CCN(C(=O)c2cc(C(F)(F)F)cc(C(F)(F)F)c2)[C@H](Cc2c[nH]c3ccccc23)C1 | 214 to 217 °C
31 | CCCCCCCCCCCCC(C(=O)O)S(=O)(=O)c1ccc(OC)cc1 (configuration not stated) | 82 °C
32 | CC(C)(C)OC(=O)NC[C@H]1CC[C@H](COS(C)(=O)=O)CC1 | 105 to 107 °C
33 | CCOC(=O)[C@@H]1CSC=CN1C(=O)[C@@H](Cc1ccccc1)N1C(=O)c2ccccc2C1=O (relative stereo) | 193 °C
34 | CCn1nc(C)c(N)c1C | 69 to 70 °C
35 | COc1ccc(-c2cc3cc(F)c(F)cc3[nH]2)cc1NCc1cccc(C#N)c1 | 154 to 155 °C
36 | COC(=O)CCC(=O)c1ccc(-c2ccc(Cl)c(Cl)c2)cc1 | 120 to 121 °C
37 | Cc1cccc(NC(=O)NCC(=O)N(CC(=O)NC(C)(C)C)c2ccccc2)c1 | 214 °C
38 | O=C(O)C=Nc1cccc(F)c1C(=O)O | 169 °C
39 | CSC(=CC(=O)c1ccccc1Br)N1CCN2CCC1CC2 | 107 to 108 °C
40 | Nc1cccc(Oc2ccc(C(=O)c3ccc(C(=O)c4ccc(Oc5cccc(N)c5)cc4)cc3)cc2)c1 | 161 to 163 °C
41 | Oc1cc2c(cc1-c1nc3cc(Cl)ccc3o1)oc1ccccc12 | 244 to 246 °C
42 | CCOC(=O)c1cc(=O)c2c(ccc3c4ccccc4c(=O)oc32)o1 | 240 to 242 °C
43 | CCC(CC)(Cc1ccc(Cl)cc1)C(O)c1cccnc1 (configuration not stated) | 128 to 129 °C
44 | Cc1ccc(C2COc3c(C)c(C)c(NC(=O)CC(C)(C)C)c(C)c32)nc1 (configuration not stated) | 170 to 171 °C
45 | CCOC1=CC2=CCC3C4CC(C)(C)C(=O)C4(C)CCC3C2(C)CC1 (configuration not stated) | 133 to 137 °C
46 | CCN(C(=O)OC(C)(C)C)C1CC=C(c2c[nH]c3cc(NC(=N)c4cccs4)ccc23)CC1 (configuration not stated) | 110 to 112 °C
47 | Nc1scc2c1c(=O)oc1ccc3ccccc3c12 | 221 to 222 °C
48 | N#Cc1ccccc1-c1c(O)ccc2c3c(oc12)-c1cc(O)ccc1CC3 | 277 to 279 °C
49 | COc1ccnc(CSc2nc3cc4c(cc3[nH]2)OCO4)c1C | 215 to 220 °C
50 | O=C(NO)c1ccc(CNC(=O)c2[nH]c(-c3cccs3)cc2-c2ccc(O)cc2)cc1 | 171 to 172 °C

Row | SMILES | melting point
51 | Fc1ccc(C2=CCC3(CC2)OCCO3)cc1 | 84 to 85 °C
52 | CC(C)(C)OC(=O)NCC1CCN(CC2(C(=O)O)CCOCC2)CC1 | 129 °C
53 | O=C(c1ccccc1)c1ccc2nc(-c3ccc(Br)o3)[nH]c2c1 | 167 to 172 °C
54 | Nc1nc2ccc(OC(F)(F)C(F)(F)F)cc2s1 | 156 °C
55 | CCCCCCCCCCCCc1ccc(NC2CCCc3ccccc32)cc1 (configuration not stated) | 34 °C
56 | CCOC(=O)c1cc(C)nc(NN=C(C)C)c1 | 79 to 82 °C
57 | C#CCNc1nnc(-c2ccccc2)cc1C | 101 °C
58 | CCCCCS(=O)(=O)NC(=O)CCc1cc(OCCOC)nn1Cc1ccc(Cl)cc1Cl | 108 to 112 °C
59 | CC1=C(C(=O)OC(C)C)C(c2cccc([N+](=O)[O-])c2)N(C(=O)Oc2ccc([N+](=O)[O-])cc2)C(=O)N1 (configuration not stated) | 138 to 140 °C
60 | CCCN(CCC)C1Cc2cc3c(cc2C1)C(=O)N(Cc1ccc(C#N)cc1)C3 (configuration not stated) | 141 to 145 °C
61 | CCOCc1nc2c(N)nc3cc(OCc4ccc(C(F)(F)F)o4)ccc3c2n1CC(C)(C)NS(C)(=O)=O | 186 to 188 °C
62 | CCCc1c(O)c(C(C)=O)cc2c1N=C(C(=O)OC)CC2=O | 169 to 170 °C
63 | COc1cc2c(cc1OC)CN(CCCc1ccc(NC(=O)c3nc4cc(C)c(C)cc4nc3OC)cc1)CC2 | 164 to 166 °C
64 | C=CCOc1cccc2c(=O)cc(N3CCOCC3)oc12 | 134 to 136 °C
65 | Cn1c(C(F)(F)F)cc(=O)n(-c2c(F)cc(Cl)c3nc(C(C)(C)C)oc23)c1=O | 68 to 70 °C
66 | CC(=O)Nc1nccc2cc3cccnc3n12 | 160 to 161 °C
67 | Clc1ccc(-n2c(Cn3ccnc3)nc3ccccc32)cc1 | 121 to 122 °C
68 | CC(=O)C(=Cc1cccc([N+](=O)[O-])c1)C(=O)OC(C)(C)CN(C)CCC(c1ccccc1)c1ccccc1 | 65 to 80 °C
69 | CC(c1ccccc1)c1cc(C(=O)O)c(O)c(C(C)c2ccccc2)c1 (configuration not stated) | 147 to 150 °C
70 | COC(=O)c1cc2c(C)ccc(C)c2n1C(C)=O | 92 to 93 °C
71 | O=C1C2CC3CC2C(C(=O)O)(C3)N1Cc1ccccc1 (configuration not stated) | 191 to 194 °C
72 | O=C(/C=C/c1ccccc1)N1CCCC1 | 100 °C
73 | CN(C)CC(=O)NCc1ccc(-c2cc3c(Nc4ccc(F)c(Cl)c4)ncnc3[nH]2)cc1 | 320 to 325 °C
74 | COc1c2c(cc3ccc(OC(C)=O)cc13)-c1ccc(OC(C)=O)cc1CO2 | 165 to 167 °C
75 | CN1CCN(c2cccc3ccc(C(=O)c4ccccc4)cc23)CC1 | 124 °C

Row | SMILES | melting point
76 | CCc1c(-c2nnc(C)s2)cc2oc(=O)c(C)c(C)c2c1OC | 201 to 203 °C
77 | O=C(c1ccccc1)c1cn2c3ccccc3c3cccc(c1=O)c32 | 158 to 160 °C
78 | CC(C)Cn1c(CO)nc2c(N)nc3cccnc3c21 | 226 to 228 °C
79 | CCCNC(=O)c1ccc(/C=C(\C)c2ccc3c(c2)C(C)(C)CCO3)cc1 | 138 to 139 °C
80 | CCc1nc2c(N)nc3cccnc3c2n1CC1(O)CCNCC1 | 232 to 233 °C
81 | ClCCCCOc1ccccc1/C=C/c1nc2ccccc2o1 | 92 to 93 °C
82 | CC[C@H](COC)n1cc(Cl)nc(N2CCc3cc(OC)cc(Br)c32)c1=O | 100 to 102 °C
83 | CC(=O)N1CCN(CCOc2ccc(C3CCN(C4=Nn5c(nnc5C(F)(F)F)CC4)CC3)cc2)CC1 | 127 °C
84 | CCn1cc(C(=O)O)c(=O)c2cc3cc(F)c(N4CCNC(c5ccc(F)cc5)C4)cc3nc21 (racemic) | 298 °C
85 | Cn1c(=O)c2ccccc2n(CCCCCl)c1=O | 99 to 100 °C
86 | CCOC(=O)CCC1=C(C#N)C(c2ccccc2Cl)c2c[nH]nc2N1 (configuration not stated) | 172 to 174 °C
87 | CCS(=O)c1ccccc1S(=O)(=O)NC(=O)Nc1nc(OC)nc(OC)n1 (configuration not stated) | 165 °C
88 | CC12CC(=O)C3C(CCC4CC=CCC43C)C1CCC2=O (configuration not stated) | 188 to 192 °C
89 | CCn1nc2c(N)nc3cnccc3c2c1CC(C)(C)O | 277 to 279 °C
90 | CC(=O)c1cc2c(s1)CCC1CC(=O)N(c3ccc(Cl)cc3)N=C21 (configuration not stated) | 155 to 157 °C
91 | CCN(c1cccc(C(=O)Nc2cc(NC(=O)c3cccc(N4CCOCC4)c3)ccc2C)c1)S(C)(=O)=O | 192 to 193 °C
92 | CCCCCNC(=O)N(C)c1ncc(-c2ccc(C[C@H](OCC)C(=O)O)cc2)s1 | 114 °C
93 | NC(=O)CNCc1noc([C@H](CCCC2CCCCC2)CC(=O)NO)n1 | 60 to 70 °C
94 | CC(C)(O)c1cc2cc(O)c(Cl)c(Cl)c2s1 | 171 to 173 °C
95 | Cc1ccc(OCC(=O)O)c(I)n1 | 170 to 172 °C
96 | CN1CCSC1=NC(=S)Nc1ccccc1 | 169 to 170 °C
97 | COc1ccc(C(=O)COc2ccc(C(=O)OCc3ccccc3)c(O)c2)cc1C12CC3CC(CC(C3)C1)C2 | 129 °C
